From US5677282A (Proscript, Inc., priority 1995, dated 1997)
pKi: −log10 of the molar value.

Columns and labels:
stromelysin = stromelysin (Homo sapiens, UniProt P08254); experiment: Assay of stromelysin inhibition activity (fluorogenic coumarin peptide substrate); type: biochemical; details: trypsin-activated stromelysin 2 nM, H-150 buffer pH 7.4, room temperature; read-out: Ki(app)
In short: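 Human stromelysin trypsin-activated, then used at 2 nM in HEPES/NaCl/CaCl2 buffer pH 7.4 at room temperature with coumarin peptide substrate. Initial hydrolysis rate followed by fluorescence (ex 328/em 393 nm); inhibitor added stepwise to 30-70% inhibition, Ki derived assuming simple competitive inhibition with substrate far below Km.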

[1] = system: bovine cartilage explants; experiment: Bovine cartilage explant assay (35S-GAG release, rhIL-1α stimulated); type: cell-based; details: rhIL-1α 5 ng/mL, 3-4 days culture
From the text: A tissue culture assay was used to measure the ability of the compounds of the present invention to slow the degradation of the extracellular matrix by metalloproteinases. This assay measured the amount of ^35 S-glycosaminoglycan (^35 S-GAG) released from labeled bovine cartilage explants.
Knee joints from a 1 to 3 week old calf were obtained immediately after sacrifice from the Abattoir and then transported on ice. The intact joints were washed well with tap water and soaked in 50% (v/v) Povidine iodine solution, obtained from Burre National, Inc., Baltimore, Md. All subsequent steps were performed in a laminar flow tissue culture hood using standard sterile technique. The joint was immobilized in a shank holder and the joint capsule was cut open to expose the articular cartilage. Cartilage explant plugs, approximately 15 mg wet weight, were removed from the flat articulating surfaces in the lower-most region of the knee joint using a sterile steel cork-borer and collected in a 250 mL roller bottle containing about 100 mL fresh Delbecco's minimum essential medium (DMEM), obtained from Gibco BRC, Life Technologies, Gaithersburg, Md., containing 4.5 g/l (D)-glucose and (L)-glutamine, without sodium pyruvate. The fresh media also contained enough Hepes buffer and sodium bicarbonate such that the pH was about 7.4. The media was then further supplemented just before use with 100 units Penicillin, 100 μg Streptomycin, and 50 μg (L)-ascorbic acid per mL of medium.
Once collected, the explant plugs were washed four times with 50 mL fresh DMEM. The plugs were then placed in the incubator for a minimum of 1 hour to equilibrate, before proceeding to make disks from the articulating surface of each plug. A 1 mm thick disk was sliced from individual plugs from the end that was the articulating surface of the joint. The plug was held steady in the sterile template (4 mm diameter×1.5 mm deep) using sterile forceps. A scalpel blade was used to carefully slice off the disk. Only the superficial articulating surface responded well in culture.
Individual disks obtained were transferred to a tissue culture flask containing about 100 mL fresh media. The flask containing the disks was placed in an incubator at 37° C. (with 5% CO2, 95% air) and allowed to equilibrate overnight and at least one additional day before labeling. When ready to label, the old media was replaced with 50 mL fresh media containing about 500 μCi ^35 S-Sodium Sulfate. The plugs were labeled in bulk for about 48 hours. The next morning, the "hot" media was removed and replaced with fresh "cold" media. The disks were again allowed to equilibrate overnight before being used for actual experiments.
The media in which the disks were stored was changed immediately prior to performing the assay. The disks were then returned to the incubator until the test media and the two control media had been prepared. The test media consisted of the desired concentration of a compound being tested for its ability to inhibit extracellular matrix degradation and concomitant recombinant human Interleukin rhIL-1α (5 ng/mL) in fresh DMEM solution. The control media were identical to the test media, except that the first control media lacked rhIL-1α and the second control media lacked the test compound. 250 μL of each of the test and control media were transferred to separate 96-well TC plates. Flamed forceps were used to transfer a disk from the incubator to each 96-well TC plates that had been filled with either the test media or one of the two control media.
The TC plates were then placed in the incubator and cultured for 3-4 days (initial incubation with rhIL-1α alpha takes at least 3 days to stimulate endogenous metalloproteinases). A 50 μL aliquot of media from each TC plate was saved and counted. The rest of the media was removed with a suction device.
The cartilage disks from each TC plate were also saved for counting. […]

92 kD gelatinase = 92 kD gelatinase (Homo sapiens, UniProt P14780); experiment: Assay of 92 KD gelatinase inhibition activity; type: biochemical; details: 92KD gelatinase 25 pM, H-150 buffer pH 7.4; read-out: Ki(app)
Procedure: H-150 buffer, pH 7.4, was prepared by CaCl2 H2 O (1.47 grams), NaCl (8.77 grams) and N-[2-hydroxyethyl]piperazine-N'-[2-ethanesulfonic acid](23.83 grams) to distilled and deionized water and then bring the final volume of the solution to 1 liter. A reaction mixture having a final volume of 500 μL was prepared with H-150 buffer, 200 μgrams of Pro-92KD gelatinase (Strongin et al., J. Biol. Chem., 268:14033 (1993); Goldberg, et al., J. Biol. Chem., 267:4583 (1992); Okada et al., J. Biol. Chem. 267:21712 (1992)), p-aminophenyl mercuric acetate (Sigma Chemical Co., St. Louis, Mo.) (1 mM) and Brij (dodexylpoly(oxyethyleneglycolether))(0,008% w/v). The reaction mixture wsa then incubated for 24 hours at 37° C.
The reaction mixture was applied to a NAP-5 column (G-25 SEPHADEX™, Pharmacia). Fractions containing 72KD gelatinase were identified using 12% polyacrylamide gel electrophoresis and concentrated to about 100-200 μliters by centrifigation (5000 g, 1 hour).
A solution containing H-150 buffer (2.0 mL), 92KD gelatinase (25 pM) and ethylphenolpoly(ethylene-glycolether)n (Boerhringer Mannheim) (4.0 μM) was prepared in a stirred cuvette. Coumarin peptide substrate (4 μL of a 5 mM solution in dimethyl sulfoxide) was added to the reaction mixture. The rate of hydrolysis was determined for about 100-200 seconds by measuring the fluorescence of the reaction at ex328 nanometers and […] using a Hitachi F-2000 Fluorescence Spectrophotometer.
(§1) 2 μL of a 10 mM inhibitor stock solution (in dimethyl sulfoxide) is added and the reduction in the rate of hydrolysis is determined. Additional 2 μL aliquots of the stock inhibitor solution is added until a 30% to 70% inhibition is observed. Ki is calculated on the assumption of simple competitive inhibition and that the substrate concentration is much less than Km.

[2] = biological target: human neutrophil collagenase (Homo sapiens, UniProt P22894); experiment: Assay of human neutrophil collagenase inhibition activity; type: biochemical; details: human neutrophil collagenase 2 nM, H-150 buffer pH 7.4; read-out: Ki(app)
Procedure: H-150 buffer, pH 7.4, was prepared by adding CaCl2 H2 O (1.47 grams), NaCl (8.77 grams) and N-[2-hydroxyethyl]piperazine-N'-[2-ethanesulfonic acid] (23.83 grams) to distilled and deionized water and then bringing the final volume of the solution to 1 liter.
A reaction mixture with a final volume of 2.0 mL was prepared from H-150 buffer, human neutrophil collagenase (Schnierer, et al., Blochem. Biophys. Res. Comm., 191:319 (1993); Knight et al., Federation of Europena Biochemical Societies 296:263 (1992)) (2 nM). Coumarin peptide substrate (4 μL of a 5 mM solution in dimethyl sulfoxide) was added to the reaction mixture. The rate of hydrolysis was determined for about 100-200 seconds by measuring the fluorescence of the reaction at ex328 nanometers and […] using a Hitachi F-2000 Fluorescence Spectrophotometer.
as §1

Sequence of stromelysin (P08254 100-477): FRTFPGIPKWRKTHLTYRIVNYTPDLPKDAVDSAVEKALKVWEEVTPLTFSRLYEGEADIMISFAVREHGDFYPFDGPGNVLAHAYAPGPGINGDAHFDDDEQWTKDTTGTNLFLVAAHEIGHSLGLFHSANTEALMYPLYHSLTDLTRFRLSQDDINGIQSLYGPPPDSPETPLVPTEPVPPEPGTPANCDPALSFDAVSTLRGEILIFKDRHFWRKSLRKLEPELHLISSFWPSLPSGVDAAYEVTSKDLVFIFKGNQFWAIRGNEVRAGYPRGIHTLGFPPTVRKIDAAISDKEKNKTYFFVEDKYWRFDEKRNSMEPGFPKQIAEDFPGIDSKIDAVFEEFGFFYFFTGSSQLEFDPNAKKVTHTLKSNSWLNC
Sequence of 92 kD gelatinase (P14780 107-707): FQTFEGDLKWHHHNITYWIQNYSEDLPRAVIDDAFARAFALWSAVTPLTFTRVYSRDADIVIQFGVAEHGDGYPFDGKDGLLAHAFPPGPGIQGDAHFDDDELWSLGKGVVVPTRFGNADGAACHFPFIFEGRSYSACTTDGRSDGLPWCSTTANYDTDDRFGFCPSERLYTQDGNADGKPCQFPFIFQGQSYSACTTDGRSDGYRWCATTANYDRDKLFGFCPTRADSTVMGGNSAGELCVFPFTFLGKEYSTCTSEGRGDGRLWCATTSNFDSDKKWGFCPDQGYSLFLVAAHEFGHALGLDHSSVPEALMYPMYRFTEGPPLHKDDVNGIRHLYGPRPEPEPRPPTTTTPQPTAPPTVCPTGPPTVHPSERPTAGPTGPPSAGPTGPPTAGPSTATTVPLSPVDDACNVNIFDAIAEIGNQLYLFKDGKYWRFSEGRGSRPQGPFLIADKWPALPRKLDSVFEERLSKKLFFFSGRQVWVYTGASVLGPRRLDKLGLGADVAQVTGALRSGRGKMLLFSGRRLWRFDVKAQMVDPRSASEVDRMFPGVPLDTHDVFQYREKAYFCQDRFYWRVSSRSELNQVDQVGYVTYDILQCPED
Sequence of human neutrophil collagenase (P22894 101-467): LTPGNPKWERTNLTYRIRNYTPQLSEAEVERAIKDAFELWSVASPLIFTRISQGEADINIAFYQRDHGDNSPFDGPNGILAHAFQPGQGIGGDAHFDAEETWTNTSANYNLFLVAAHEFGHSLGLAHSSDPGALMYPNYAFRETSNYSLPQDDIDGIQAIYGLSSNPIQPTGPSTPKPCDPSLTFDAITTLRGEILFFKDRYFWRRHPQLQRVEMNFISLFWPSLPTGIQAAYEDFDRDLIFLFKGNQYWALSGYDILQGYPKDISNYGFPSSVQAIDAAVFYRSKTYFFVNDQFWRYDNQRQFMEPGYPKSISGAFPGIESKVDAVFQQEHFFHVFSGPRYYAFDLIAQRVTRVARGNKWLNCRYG

SMILES | pKi (stromelysin) | % inhibition (concentration [μM]) of cartilage degradation ([1]; 50 μM compound) [%] | also measured
O=C(N[C@@H](CCc1ccccc1)C(=O)Nc1n[nH]c(=S)s1)OCC1c2ccccc2-c2ccccc21 [5-(N-(9-flourenylmethoxycarbonyl)homophenylalanylamino)-1,3,4-thiadiazole-2-thione] | 6.36 | 65 | pKi (92 kD gelatinase): 9.46
CC(C)[C@H](NC(=O)OCC1c2ccccc2-c2ccccc21)C(=O)Nc1n[nH]c(=S)s1 [5-(N-(9-fluorenylmethoxycarbonyl)valylamino)-1,3,4-thiadiazole-2-thione] | 6.89 | – | inhibition at 20 µM ([1]; Bos taurus, 20 μM compound, read-out: % inhibition (concentration [μM]) of cartilage degradation): 42%
CC(C)[C@H](NC(=O)[C@H](CCC(=O)OCc1ccccc1)NC(=O)OCc1ccccc1)C(=O)Nc1n[nH]c(=S)s1 [5-(N-benzyloxycarbonyl-(O-benzyl)glutamoyl-valylamino)-1,3,4-thiadiazole-2-thione] | 6.84 | – | % inhibition (concentration [μM]) of cartilage degradation ([1]; 25 μM compound): 33%
O=C(N[C@@H](Cc1c[nH]c2ccccc12)C(=O)N[C@@H](Cc1ccccc1)C(=O)Nc1n[nH]c(=S)s1)OCc1ccccc1 [5-(N-benzyloxycarbonyl-tryptoyl-phenylalanylamino)-1,3,4-thiadiazole-2-thione] | 6.65 | 35 | –

Compounds with a higher pKi (stromelysin), results first:

pKi (stromelysin) | SMILES | % inhibition (concentration [μM]) of cartilage degradation ([1]; 50 μM compound) [%] | also measured
7.00 | CC(C)[C@H](NC(=O)Cc1ccc(-c2ccccc2)cc1)C(=O)Nc1n[nH]c(=S)s1 [5-(N-((4-phenyl)phenylacetyl)valylamino)-1,3,4-thiadiazole-2-thione] | – | inhibition at 25 µM ([1]; Bos taurus, 25 μM compound, read-out: % inhibition (concentration [μM]) of cartilage degradation): 47%
7.04 | CC(C)[C@H](NC(=O)[C@H](CCC(=O)NC(c1ccccc1)(c1ccccc1)c1ccccc1)NC(=O)OCc1ccccc1)C(=O)Nc1n[nH]c(=S)s1 [5-(N-benzyloxycarbonyl-(7--N-trityl)glutamyl-valyamino-1,3,4-thiadiazole-2-thione] | – | % inhibition (concentration [μM]) of cartilage degradation ([1]; 25 μM compound): 56%
7.10 | CC(C)[C@H](NC(=O)[C@H](Cc1ccc(OCc2ccccc2)cc1)NC(=O)OCc1ccccc1)C(=O)Nc1n[nH]c(=S)s1 [5-(N-benzyloxycarbnyl-(O-benzyl)tyrosyl-valylamino)-1,3,4-thiadiazole-2-thione] | 59 | pKi [2]: 8.67
